Test results reported in US4003891A, “Preparation of metal complexes of 6-methoxy-1-phenazinol 5,10 dioxide” (Hoffmann-La Roche Inc., priority 1975, dated 1977).

Legend:
P. aeruginosa = experiment: In vivo anti-microbial efficacy against bacteria (ED50')
Method: (§1) For example, the anti-microbial activity of calcium myxin dihydrate, prepared by the method of this invention, is evaluated and compared to that of myxin itself both in vivo against 4 strains of bacteria and in vitro against yeast and fungus infections.

S. agalactiae = experiment: as above
Method: as §1

S. aureus = experiment: as above
Method: as §1

E. coli = experiment: as above
Method: as §1

Solubility in water = assay type: physicochemical

| Molecule | ED50' (P. aeruginosa) [µg/mL] | ED50' (S. agalactiae) [µg/mL] | ED50' (S. aureus) [µg/mL] | ED50' (E. coli) [µg/mL] | solubility in water (Solubility in water) |
| --- | --- | --- | --- | --- | --- |
| 6-methoxy-1-phenazinol 5,10-dioxide, calcium dihydrate complex [Calcium Myxin Dihydrate] | 20 | < 4 | < 20 | 60 | – |
| COc1cccc2c1[n+]([O-])c1cccc(O)c1[n+]2[O-] [Myxin, 6-methoxy-1-phenazinol 5,10-dioxide] | – | – | – | – | very slightly soluble |
